Test results: patent publication US10183914B2 (BAYER CROPSCIENCE AKTIENGESELLSCHAFT, priority 2014, dated 2019)

What was measured:
[1] = tested on: Zea mays; test: Pre-emergence herbicidal effect and crop plant compatibility; type: in vivo; settings: 3 weeks
Method in brief: (§1)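 Sandy loam, seeds covered with soil, WP/EC sprayed on soil surface; 600–800 L/ha water + 0.2% wetter; greenhouse 3 wk; visual % damage vs untreated.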

[2] = tested on: Triticum aestivum (spring); test: as above; type: in vivo; settings: 3 weeks
Method in brief: as §1

[3] = tested on: Brassica napus; test: Post-emergence herbicidal effect and crop plant compatibility; type: in vivo; settings: 80 g/ha, visual scoring after about 3 weeks
Method in brief: (§2)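 Scoring: visual, percent, about 3 weeks post-treatment, untreated plants as 0% reference and dead plants as 100%. Treatment: spray of WP/EC formulation (600 to 800 L/ha water, 0.2% wetting agent) on one-leaf-stage plants grown in sandy loam under greenhouse conditions.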

[4] = tested on: Oryza sativa; test: as above; type: in vivo; settings: visual scoring after about 3 weeks
Method in brief: as §2

[5] = tested on: Zea mays; test: as above; type: in vivo; settings: visual scoring after about 3 weeks
Method in brief: as §2

[6] = tested on: Triticum aestivum (spring); test: as above; type: in vivo; settings: visual scoring after about 3 weeks
Method in brief: as §2

[7] = tested on: Polygonum convolvulus; test: Pre-emergence herbicidal effect; type: in vivo; settings: 3 weeks
Method in brief: as §1

[8] = tested on: Lolium multiflorum; test: Pre-emergence herbicidal effect; type: in vivo; settings: 3 weeks
Method in brief: as §1

[9] = tested on: Veronica persica; test: Pre-emergence herbicidal effect; type: in vivo; settings: 3 weeks
Method in brief: as §1

[10] = tested on: Stellaria media; test: Pre-emergence herbicidal effect; type: in vivo; settings: 3 weeks
Method in brief: as §1

[11] = tested on: Amaranthus retroflexus; test: Pre-emergence herbicidal effect; type: in vivo; settings: 3 weeks
Method in brief: as §1

[12] = tested on: Viola tricolor; test: Pre-emergence herbicidal effect; type: in vivo; settings: 3 weeks
Method in brief: as §1

[13] = tested on: Alopecurus myosuroides; test: Pre-emergence herbicidal effect; type: in vivo; settings: 320 g/ha, 3 weeks
Method in brief: as §1

[14] = tested on: Echinochloa crus-galli; test: Pre-emergence herbicidal effect; type: in vivo; settings: 3 weeks
Method in brief: as §1

[15] = tested on: Setaria viridis; test: Pre-emergence herbicidal effect; type: in vivo; settings: 3 weeks
Method in brief: as §1

[16] = tested on: Avena fatua; test: Pre-emergence herbicidal effect; type: in vivo; settings: 320 g/ha, 3 weeks
Method in brief: as §1

[17] = tested on: Matricaria inodora; test: Pre-emergence herbicidal effect; type: in vivo; settings: 3 weeks
Method in brief: as §1

[18] = logp (HCOOH), physicochemical characterization
[19] = tested on: Oryza sativa; test: Pre-emergence herbicidal effect and crop plant compatibility; type: in vivo; settings: 3 weeks
Method in brief: as §1

[20] = tested on: Abutilon theophrasti; test: Pre-emergence herbicidal effect; type: in vivo; settings: 3 weeks
Method in brief: as §1

[21] = tested on: Ipomoea purpurea; test: Pre-emergence herbicidal effect; type: in vivo; settings: 320 g/ha, 3 weeks
Method in brief: as §1

[22] = tested on: Lolium multiflorum; test: Post-emergence herbicidal effect; type: in vivo; settings: 320 g/ha, visual scoring after about 3 weeks
Method in brief: as §2

[23] = tested on: Ipomoea purpurea; test: Post-emergence herbicidal effect; type: in vivo; settings: scoring after about 3 weeks
Method in brief: as §2

[24] = tested on: Alopecurus myosuroides; test: Post-emergence herbicidal effect; type: in vivo; settings: 320 g/ha, visual scoring after about 3 weeks
Method in brief: as §2

[25] = tested on: Echinochloa crus-galli; test: Post-emergence herbicidal effect; type: in vivo; settings: visual scoring after about 3 weeks
Method in brief: as §2

[26] = tested on: Setaria viridis; test: Post-emergence herbicidal effect; type: in vivo; settings: 320 g/ha (dose by row order of upper half), scoring after about 3 weeks
Method in brief: as §2

[27] = tested on: Avena fatua; test: Post-emergence herbicidal effect; type: in vivo; settings: 320 g/ha, visual scoring after about 3 weeks
Method in brief: as §2

CC1CC(=O)c2cnc(N[C@@H]3CCCc4ccccc43)nc2C1 (some centres unmarked) [2.26]
ZEAMX herbicidal activity in percent ([1]; 80 g/ha): 0% | TRZAS herbicidal activity in percent ([2]; 80 g/ha): 0% | post-emergence efficacy BRSNW [3]: 20% | post-emergence efficacy ORYSA ([4]; 80 g/ha): 0% | post-emergence efficacy ORYSA ([4]; 320 g/ha): 0% | post-emergence efficacy ZEAMX ([5]; 80 g/ha): 0% | post-emergence efficacy ZEAMX ([5]; 320 g/ha): 0% | post-emergence efficacy TRZAS ([6]; 80 g/ha): 0% | post-emergence efficacy TRZAS ([6]; 320 g/ha): 0% | POLCO herbicidal activity in percent ([7]; 320 g/ha): 100% | LOLMU herbicidal activity in percent ([8]; 320 g/ha): 100% | VERPE herbicidal activity in percent ([9]; 80 g/ha): 80% | VERPE herbicidal activity in percent ([9]; 320 g/ha): 100% | STEME herbicidal activity in percent ([10]; 80 g/ha): 100% | STEME herbicidal activity in percent ([10]; 320 g/ha): 100% | AMARE herbicidal activity in percent ([11]; 80 g/ha): 100% | AMARE herbicidal activity in percent ([11]; 320 g/ha): 100% | VIOTR herbicidal activity in percent ([12]; 80 g/ha): 90% | VIOTR herbicidal activity in percent ([12]; 320 g/ha): 100% | ALOMY herbicidal activity in percent [13]: 90% | ECHCG herbicidal activity in percent ([14]; 80 g/ha): 80% | ECHCG herbicidal activity in percent ([14]; 320 g/ha): 100% | SETVI herbicidal activity in percent ([15]; 320 g/ha): 90% | AVEFA herbicidal activity in percent [16]: 90% | MATIN herbicidal activity in percent ([17]; 320 g/ha): 100% | logp (HCOOH) [18]: oily; logp (HCOOH): 3.45; 1H-NMR (CDCl3, 400 MHZ, δ in ppm): 1.15 (m, 3H, CH3);

Cc1ccc2c(c1)[C@H](Nc1ncc3c(n1)CC(c1ccc(F)cc1)CC3=O)[C@@H](C)C2 (some centres unmarked) [2.52]
ORYSA herbicidal activity in percent ([19]; 80 g/ha): 0% | ORYSA herbicidal activity in percent ([19]; 320 g/ha): 20% | ZEAMX herbicidal activity in percent ([1]; 80 g/ha): 0% | ZEAMX herbicidal activity in percent ([1]; 320 g/ha): 10% | TRZAS herbicidal activity in percent ([2]; 80 g/ha): 0% | TRZAS herbicidal activity in percent ([2]; 320 g/ha): 30% | post-emergence efficacy BRSNW [3]: 20% | post-emergence efficacy ORYSA ([4]; 80 g/ha): 0% | post-emergence efficacy ORYSA ([4]; 320 g/ha): 0% | post-emergence efficacy ZEAMX ([5]; 80 g/ha): 0% | post-emergence efficacy ZEAMX ([5]; 320 g/ha): 0% | post-emergence efficacy TRZAS ([6]; 80 g/ha): 0% | post-emergence efficacy TRZAS ([6]; 320 g/ha): 0% | POLCO herbicidal activity in percent ([7]; 320 g/ha): 60% | LOLMU herbicidal activity in percent ([8]; 320 g/ha): 90% | VERPE herbicidal activity in percent ([9]; 80 g/ha): 90% | VERPE herbicidal activity in percent ([9]; 320 g/ha): 100% | STEME herbicidal activity in percent ([10]; 320 g/ha): 100% | ABUTH herbicidal activity in percent ([20]; 320 g/ha): 0% | AMARE herbicidal activity in percent ([11]; 320 g/ha): 100% | VIOTR herbicidal activity in percent ([12]; 80 g/ha): 100% | VIOTR herbicidal activity in percent ([12]; 320 g/ha): 100% | ECHCG herbicidal activity in percent ([14]; 320 g/ha): 100% | SETVI herbicidal activity in percent ([15]; 320 g/ha): 70% | MATIN herbicidal activity in percent ([17]; 320 g/ha): 100% | logp (HCOOH) [18]: oily; logp (HCOOH): 4.87; 1H-NMR (CDCl3, 400 MHZ, δ in ppm): 1.25 (t, 3H, CH3);

Cc1ccc2c(c1)[C@H](Nc1ncc3c(n1)CC(C)(C)CC3=O)[C@@H](C)C2 [2.45]
ORYSA herbicidal activity in percent ([19]; 80 g/ha): 0% | ORYSA herbicidal activity in percent ([19]; 320 g/ha): 10% | ZEAMX herbicidal activity in percent ([1]; 80 g/ha): 10% | post-emergence efficacy ORYSA ([4]; 80 g/ha): 20% | post-emergence efficacy ZEAMX ([5]; 80 g/ha): 0% | post-emergence efficacy ZEAMX ([5]; 320 g/ha): 0% | post-emergence efficacy TRZAS ([6]; 80 g/ha): 10% | post-emergence efficacy TRZAS ([6]; 320 g/ha): 10% | POLCO herbicidal activity in percent ([7]; 80 g/ha): 100% | POLCO herbicidal activity in percent ([7]; 320 g/ha): 100% | LOLMU herbicidal activity in percent ([8]; 80 g/ha): 80% | LOLMU herbicidal activity in percent ([8]; 320 g/ha): 100% | VERPE herbicidal activity in percent ([9]; 80 g/ha): 100% | VERPE herbicidal activity in percent ([9]; 320 g/ha): 100% | STEME herbicidal activity in percent ([10]; 80 g/ha): 100% | STEME herbicidal activity in percent ([10]; 320 g/ha): 100% | ABUTH herbicidal activity in percent ([20]; 80 g/ha): 80% | ABUTH herbicidal activity in percent ([20]; 320 g/ha): 80% | AMARE herbicidal activity in percent ([11]; 80 g/ha): 100% | AMARE herbicidal activity in percent ([11]; 320 g/ha): 100% | PHBPU herbicidal activity in percent [21]: 90% | VIOTR herbicidal activity in percent ([12]; 80 g/ha): 100% | VIOTR herbicidal activity in percent ([12]; 320 g/ha): 100% | ALOMY herbicidal activity in percent [13]: 90% | ECHCG herbicidal activity in percent ([14]; 80 g/ha): 100% | ECHCG herbicidal activity in percent ([14]; 320 g/ha): 100% | SETVI herbicidal activity in percent ([15]; 80 g/ha): 100% | SETVI herbicidal activity in percent ([15]; 320 g/ha): 100% | AVEFA herbicidal activity in percent [16]: 80% | MATIN herbicidal activity in percent ([17]; 80 g/ha): 90% | MATIN herbicidal activity in percent ([17]; 320 g/ha): 90% | post-emergence efficacy LOLMU [22]: 100% | post-emergence efficacy PHBPU ([23]; 80 g/ha (dose by row order of upper half)): 100% | post-emergence efficacy PHBPU ([23]; 320 g/ha (dose by row order of upper half)): 100% | post-emergence efficacy ALOMY [24]: 80% | post-emergence efficacy ECHCG ([25]; 80 g/ha): 100% | post-emergence efficacy ECHCG ([25]; 320 g/ha): 100% | post-emergence efficacy SETVI [26]: 90% | post-emergence efficacy AVEFA [27]: 80% | logp (HCOOH) [18]: oily; logp (HCOOH): 4.23; 1H-NMR (CDCl3, 400 MHZ, δ in ppm): 1.10 (m, 6H,
